# Experimental data as given in US5962493A, “2-mercaptobenzimidazole derivatives and antihyperlipemic agent or antiarteriosclerotic agent containing the same” (priority 1997, dated 1999).
# Where two headings read alike, the source gives them in different places.
# How the values were obtained:
# [1] = tested on: mouse peritoneal macrophage; experiment: In vitro tests on inhibition of foaming of macrophage with mouse peritoneal macrophage (cholesteryl ester formation); assay type: cell-based, mouse (female ICR); conditions: 16 hours at 37° C., read-out: CE (%) (cholesteryl ester-forming rate, ratio to the control)
# Procedure: (1) In vitro tests on inhibition of foaming of macrophage with mouse peritoneal macrophage:
# The necks of 15-week old female ICR mice (Japan SLC) were cut off. After blood-letting, Hanks buffer solution (Nissui Seiyaku Co., Ltd.) was injected into the abdominal cavity of each mouse. The abdomen was massaged and then the buffer solution was rapidly recovered, centrifuged at 1000 rotations for 5 minutes to collect the peritoneal macrophages. The peritoneal macrophases thus collected were then suspended in GIT medium (Wako Pure Chemical Industries, Ltd.), and the suspension was spread on a 24-hole microplate. After the cultivation at 37° C. in 5% CO2 for 2 hours, the medium was replaced with a Dulbecoo Modified Eagle's MEM medium (Nissui Seiyaku Co., Ltd.). After the cultivation at 37° C. in 5% CO2 for additional 16 hours, the following substances were added in the following order:
# (1) subject: dissolved in DMSO (Wako Pure Chemical Industries, Ltd.)
# PC: phosphatidyl choline (a product of Funakoshi)
# PS: phosphatidyl serine (ditto)
# DCP: dicetyl phosphate (ditto)
# CHOL.: cholesterol (Sigma).
# After further cultivation at 37° C. in 5% CO2 for 16 hours, the lipid fraction was extracted with chloroform and methanol. The lipid fraction thus extracted was dissolved in isopropyl alcohol, and the formed cholesteryl ester (CE) was determined by an enzymatic coloring method. The cholesteryl ester-forming rate of each compound was calculated in terms of the ratio thereof to the control. The cytotoxicity was examined by microscopic observation of the shape of the cell.
# The pharmacological effects of the compounds given in Table 2 were evaluated in the same manner as that of Example 3.
# [2] = tested on: mouse peritoneal macrophage; conditions: dose 5 μM, microscopic observation
# [3] = tested on: total blood cholesterol; experiment: Effect of reducing blood lipid of rabbit having high-cholesterol feed; assay type: in vivo, rabbit (male New Zealand white); conditions: 30 mg/kg/day mixed with high-cholesterol food, 14 days; based on the control; group of three rabbits
# Procedure: (2) Effect of reducing blood lipid of rabit having high-cholesterol feed:
# A high-cholesterol food (100 g/day/rabbit: ORC-4 of Oriental Yeast Co., Ltd. +0.5% cholesterol +0.5% olive oil) was given to each of male New Zealand white rabbits weighing about 2 kg for seven days to make them suffer from hypercholesterolemia.
# In the next stage, the high-cholesterol food was still given to the rabbits and, in addition, 30 mg/kg/day/rabbit of the test compound (2) was continuously given in the form of a mixture thereof with the food to a group of three rabbits (test group) for 14 days. On the other hand, only the same high-cholesterol food as above was given in the equal dose to another group of three rabbits (control group).
# After the continuous feeding for 14 days followed by fasting for one day, a small amount of the blood was taken from the parotid vein to determine the total blood cholesterol (latripo TC: a product of latron Co. Ltd.).
# [4] = Acute Toxicity Test; parameters: species or system mouse (8-week ddy); conditions: mouse, in vivo; oral, 0.5% Tween 80 suspension, six 8-week ddy mice, observed for one month
# Description: The compound (2) was suspended in 0.5% Tween 80 solution.
# The compound I-7 was suspended in 0.5% Tween 80 solution.
compound,measurement,setting,value
Clc1cc2nc(SCCOCCSc3nc4cc(Cl)c(Cl)cc4[nH]3)[nH]c2cc1Cl [Compound (16)],activity at 5 µM,"[1]; Table 1, ratio to control",46%
same,Cytotoxicity,[2]; Table 1,none
c1ccc(Cn2c(SCCOCCSc3nc4ccccc4n3Cc3ccccc3)nc3ccccc32)cc1 [Compound (10)],activity at 5 µM,"[1]; Table 1, ratio to control",76%
same,Cytotoxicity,[2]; Table 1,none
CCC(=O)n1c(SCCOCCSc2nc3ccccc3n2C(=O)CC)nc2ccccc21 [Compound (2)],activity at 5 µM,"[1]; Table 1, ratio to control",7%
same,total blood cholesterol decreasing rate,[3],25%
same,LD50 at 730 h,[4],≥ 5000 mg/kg
same,Cytotoxicity,[2]; Table 1,none
CCCCCCCCn1c(SCCOCCSc2nc3ccccc3n2CCCCCCCC)nc2ccccc21 [Compound (9)],activity at 5 µM,"[1]; Table 1, ratio to control",28%
same,Cytotoxicity,[2]; Table 1,none
c1ccc2[nH]c(SCCOCCOCCOCCSc3nc4ccccc4[nH]3)nc2c1 [Compound (22)],activity at 5 µM,"[1]; Table 1, ratio to control",22%
same,Cytotoxicity,[2]; Table 1,none
"c1ccc2[nH]c(SCCCCCSc3nc4ccccc4[nH]3)nc2c1 [Compound I-7, 1,5-bis(2-benzimidazoylthio)pentane]",LD50 at 730 h,[4],≥ 5000 mg/kg
c1ccc2[nH]c(SCCOCCSc3nc4ccccc4[nH]3)nc2c1 [Compound (1)],activity at 5 µM,"[1]; Table 1, ratio to control",25%
same,Cytotoxicity,[2]; Table 1,none
Cc1cc2nc(SCCOCCSc3nc4cc(C)c(C)cc4[nH]3)[nH]c2cc1C [Compound (13)],activity at 5 µM,"[1]; Table 1, ratio to control",45%
same,Cytotoxicity,[2]; Table 1,none
CCCCCCCC(=O)n1c(SCCOCCSc2nc3ccccc3n2C(=O)CCCCCCC)nc2ccccc21 [Compound (6)],activity at 5 µM,"[1]; Table 1, ratio to control",26%
same,Cytotoxicity,[2]; Table 1,none
"c1ccc2[nH]c(SCCCCCCCCSc3nc4ccccc4[nH]3)nc2c1 [IV-2, 1,8-bis(2-benzimidazoylthio)octane]",activity at 5 µM,"[1]; Table 2, ratio to control",28%
same,Cytotoxicity,[2]; Table 2,none
c1ccc2[nH]c(SCCOCCOCCSc3nc4ccccc4[nH]3)nc2c1 [Compound (19)],activity at 5 µM,"[1]; Table 1, ratio to control",11%
same,Cytotoxicity,[2]; Table 1,none
Clc1ccc2[nH]c(SCCOCCSc3nc4cc(Cl)ccc4[nH]3)nc2c1 [Compound (14)],activity at 5 µM,"[1]; Table 1, ratio to control",18%
same,Cytotoxicity,[2]; Table 1,none
CCCCCC(=O)n1c(SCCOCCSc2nc3ccccc3n2C(=O)CCCCC)nc2ccccc21 [Compound (5)],activity at 5 µM,"[1]; Table 1, ratio to control",20%
same,Cytotoxicity,[2]; Table 1,none
